{"source": "ChEMBL document CHEMBL4118098", "about": "“Discovery of DS28120313 as a potent orally active hepcidin production inhibitor: Design and optimization of novel 4,6-disubstituted indazole derivatives” (Bioorg Med Chem Lett, 2017)", "key": {"[1]": {"biological_target": "T1, cGMP-dependent protein kinase 1 (Homo sapiens) (UniProt Q13976)", "T1 sequence (whole entry)": "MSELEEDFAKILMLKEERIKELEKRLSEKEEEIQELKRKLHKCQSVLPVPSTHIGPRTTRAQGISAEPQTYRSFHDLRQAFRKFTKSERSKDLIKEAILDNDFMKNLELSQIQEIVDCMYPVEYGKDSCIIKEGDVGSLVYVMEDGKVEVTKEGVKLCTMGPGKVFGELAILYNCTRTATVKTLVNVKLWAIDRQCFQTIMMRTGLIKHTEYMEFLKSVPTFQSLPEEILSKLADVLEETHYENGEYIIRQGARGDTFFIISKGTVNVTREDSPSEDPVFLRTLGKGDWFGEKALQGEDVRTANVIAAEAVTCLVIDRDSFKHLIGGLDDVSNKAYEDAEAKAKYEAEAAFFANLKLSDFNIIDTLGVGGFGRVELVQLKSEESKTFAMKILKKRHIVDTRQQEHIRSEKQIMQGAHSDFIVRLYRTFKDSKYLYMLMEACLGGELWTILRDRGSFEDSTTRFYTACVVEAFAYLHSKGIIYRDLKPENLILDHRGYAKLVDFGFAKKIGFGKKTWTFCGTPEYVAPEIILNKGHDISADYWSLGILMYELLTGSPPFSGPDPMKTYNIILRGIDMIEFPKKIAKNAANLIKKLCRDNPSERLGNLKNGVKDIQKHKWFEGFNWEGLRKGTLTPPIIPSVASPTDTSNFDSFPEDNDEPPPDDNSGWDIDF", "experiment": "Inhibition of PKG-alpha (unknown origin) at 0.45 uM relative to control"}, "[2]": {"biological_target": "Serine/threonine-protein kinase pim-3 (Homo sapiens) (UniProt Q86V86)", "experiment": "Inhibition of PIM3 (unknown origin) at 0.45 uM relative to control"}, "[3]": {"biological_target": "Tyrosine-protein kinase Fyn (Homo sapiens) (UniProt P06241)", "experiment": "Inhibition of FYN (unknown origin) at 0.19 uM relative to control"}, "[4]": {"biological_target": "Serine/threonine-protein kinase D3 (Homo sapiens) (UniProt O94806)", "experiment": "Inhibition of PKD3 (unknown origin) at 0.19 uM relative to control"}, "[5]": {"biological_target": "RAC-alpha serine/threonine-protein kinase (Homo sapiens) (UniProt P31749)", "experiment": "Inhibition of AKT1 (unknown origin) at 0.19 uM relative to control"}, "[6]": {"biological_target": "Fibroblast growth factor receptor 1 (Homo sapiens) (UniProt P11362)", "sequence (P11362 22-822 limits assumed)": "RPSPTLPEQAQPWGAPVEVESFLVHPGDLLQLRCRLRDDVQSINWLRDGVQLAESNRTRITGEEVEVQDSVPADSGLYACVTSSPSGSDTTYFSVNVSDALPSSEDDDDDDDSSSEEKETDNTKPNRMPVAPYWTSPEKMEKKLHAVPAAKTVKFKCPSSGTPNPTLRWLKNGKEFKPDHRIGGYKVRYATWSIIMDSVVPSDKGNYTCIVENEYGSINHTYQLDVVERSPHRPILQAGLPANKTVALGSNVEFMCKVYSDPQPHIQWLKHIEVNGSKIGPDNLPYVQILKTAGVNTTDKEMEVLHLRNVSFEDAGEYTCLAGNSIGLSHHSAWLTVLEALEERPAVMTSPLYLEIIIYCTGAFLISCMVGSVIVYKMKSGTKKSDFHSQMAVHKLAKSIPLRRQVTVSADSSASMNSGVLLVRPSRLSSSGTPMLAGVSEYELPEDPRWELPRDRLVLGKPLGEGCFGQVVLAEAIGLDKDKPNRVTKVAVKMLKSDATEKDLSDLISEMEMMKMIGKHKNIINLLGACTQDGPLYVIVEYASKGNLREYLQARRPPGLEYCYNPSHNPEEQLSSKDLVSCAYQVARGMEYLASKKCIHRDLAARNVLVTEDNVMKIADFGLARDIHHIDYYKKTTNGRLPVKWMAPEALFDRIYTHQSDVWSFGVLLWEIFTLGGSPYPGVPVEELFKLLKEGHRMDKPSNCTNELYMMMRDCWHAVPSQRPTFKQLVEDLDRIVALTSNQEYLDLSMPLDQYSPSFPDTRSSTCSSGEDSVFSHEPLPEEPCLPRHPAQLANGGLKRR", "experiment": "Inhibition of FGFR1 (unknown origin) at 0.19 uM relative to control"}, "[7]": {"biological_target": "Protein kinase C eta type (Homo sapiens) (UniProt P24723)", "sequence (P24723 whole entry)": "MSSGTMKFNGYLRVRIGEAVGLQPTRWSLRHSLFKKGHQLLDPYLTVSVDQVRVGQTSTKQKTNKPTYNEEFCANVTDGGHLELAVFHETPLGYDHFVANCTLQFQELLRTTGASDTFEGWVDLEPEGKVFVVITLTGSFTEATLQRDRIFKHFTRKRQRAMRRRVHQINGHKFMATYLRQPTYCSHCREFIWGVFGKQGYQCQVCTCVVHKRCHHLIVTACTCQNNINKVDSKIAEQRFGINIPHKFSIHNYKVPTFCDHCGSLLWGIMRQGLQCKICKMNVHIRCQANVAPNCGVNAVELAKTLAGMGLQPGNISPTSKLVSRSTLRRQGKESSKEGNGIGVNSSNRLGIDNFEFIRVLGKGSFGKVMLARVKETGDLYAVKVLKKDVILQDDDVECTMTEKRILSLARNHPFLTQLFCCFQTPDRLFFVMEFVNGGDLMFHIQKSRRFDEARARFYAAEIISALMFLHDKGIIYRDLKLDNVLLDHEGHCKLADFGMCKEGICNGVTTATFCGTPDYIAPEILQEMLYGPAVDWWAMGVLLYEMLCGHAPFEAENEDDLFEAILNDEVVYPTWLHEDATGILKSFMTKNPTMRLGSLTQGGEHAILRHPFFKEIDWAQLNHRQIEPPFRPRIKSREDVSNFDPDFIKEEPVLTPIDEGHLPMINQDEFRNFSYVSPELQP", "experiment": "Inhibition of PKC-eta (unknown origin) at 0.19 uM relative to control"}, "[8]": {"biological_target": "Ephrin type-A receptor 1 (Homo sapiens) (UniProt P21709)", "experiment": "Inhibition of EPHA1 (unknown origin) at 0.19 uM relative to control"}, "[9]": {"biological_target": "Tyrosine-protein kinase Tec (Homo sapiens) (UniProt P42680)", "sequence (P42680 whole entry)": "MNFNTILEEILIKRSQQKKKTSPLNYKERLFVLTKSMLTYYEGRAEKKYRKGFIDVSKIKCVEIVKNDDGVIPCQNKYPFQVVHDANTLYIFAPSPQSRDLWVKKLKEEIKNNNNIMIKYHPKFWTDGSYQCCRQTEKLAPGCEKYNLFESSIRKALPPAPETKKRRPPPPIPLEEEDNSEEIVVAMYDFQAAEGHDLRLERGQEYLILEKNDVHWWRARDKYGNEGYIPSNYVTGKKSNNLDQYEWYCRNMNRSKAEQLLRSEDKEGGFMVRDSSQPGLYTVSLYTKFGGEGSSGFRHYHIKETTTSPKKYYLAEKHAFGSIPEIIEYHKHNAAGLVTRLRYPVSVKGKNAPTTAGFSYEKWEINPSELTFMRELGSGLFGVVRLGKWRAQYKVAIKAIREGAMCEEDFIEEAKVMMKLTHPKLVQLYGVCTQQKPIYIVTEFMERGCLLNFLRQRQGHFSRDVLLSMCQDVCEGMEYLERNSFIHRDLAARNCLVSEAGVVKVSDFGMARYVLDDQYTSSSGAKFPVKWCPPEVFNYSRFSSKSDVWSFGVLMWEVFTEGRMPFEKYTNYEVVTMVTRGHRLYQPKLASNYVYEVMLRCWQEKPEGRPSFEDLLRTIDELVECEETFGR", "experiment": "Inhibition of TEC (unknown origin) at 0.19 uM relative to control"}, "[10]": {"biological_target": "Receptor tyrosine-protein kinase erbB-4 (Homo sapiens) (UniProt Q15303)", "sequence (Q15303 whole entry)": "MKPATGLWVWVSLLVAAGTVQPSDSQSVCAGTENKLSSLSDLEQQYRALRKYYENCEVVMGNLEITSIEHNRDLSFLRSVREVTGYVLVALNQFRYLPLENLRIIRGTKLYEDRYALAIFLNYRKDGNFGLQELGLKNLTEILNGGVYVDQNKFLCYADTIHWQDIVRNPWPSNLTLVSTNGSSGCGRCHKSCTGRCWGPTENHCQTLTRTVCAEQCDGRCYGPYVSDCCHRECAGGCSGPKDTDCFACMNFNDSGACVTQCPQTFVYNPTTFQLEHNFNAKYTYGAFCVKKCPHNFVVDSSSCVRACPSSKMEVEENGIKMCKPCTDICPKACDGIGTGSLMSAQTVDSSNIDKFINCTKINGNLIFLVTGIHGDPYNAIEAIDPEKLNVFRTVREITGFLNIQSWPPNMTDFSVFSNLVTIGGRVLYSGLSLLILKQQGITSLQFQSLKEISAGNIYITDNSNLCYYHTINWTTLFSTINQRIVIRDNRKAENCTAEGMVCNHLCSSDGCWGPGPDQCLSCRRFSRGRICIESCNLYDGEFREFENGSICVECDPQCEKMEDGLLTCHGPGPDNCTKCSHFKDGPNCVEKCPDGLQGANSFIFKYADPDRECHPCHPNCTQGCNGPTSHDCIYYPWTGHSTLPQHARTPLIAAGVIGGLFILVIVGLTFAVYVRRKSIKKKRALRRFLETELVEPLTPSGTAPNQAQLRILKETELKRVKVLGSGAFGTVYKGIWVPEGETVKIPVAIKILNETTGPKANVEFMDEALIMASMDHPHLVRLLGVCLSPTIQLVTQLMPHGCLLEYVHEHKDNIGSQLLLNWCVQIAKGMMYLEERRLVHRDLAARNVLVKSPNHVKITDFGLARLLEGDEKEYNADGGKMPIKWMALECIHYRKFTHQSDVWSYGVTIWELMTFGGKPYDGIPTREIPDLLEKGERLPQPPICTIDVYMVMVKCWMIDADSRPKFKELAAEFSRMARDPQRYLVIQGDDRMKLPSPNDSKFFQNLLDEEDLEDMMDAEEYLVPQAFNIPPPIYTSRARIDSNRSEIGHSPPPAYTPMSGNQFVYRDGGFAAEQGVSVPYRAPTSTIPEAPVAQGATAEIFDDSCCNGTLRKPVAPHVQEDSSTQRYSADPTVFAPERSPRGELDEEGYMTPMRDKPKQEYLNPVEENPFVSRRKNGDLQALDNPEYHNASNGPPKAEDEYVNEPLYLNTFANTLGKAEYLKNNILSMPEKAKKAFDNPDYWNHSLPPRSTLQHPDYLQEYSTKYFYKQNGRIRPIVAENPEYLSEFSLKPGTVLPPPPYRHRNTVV", "experiment": "Inhibition of HER4 (unknown origin) at 0.19 uM relative to control"}, "[11]": {"biological_target": "Platelet-derived growth factor receptor beta (Homo sapiens) (UniProt P09619)", "experiment": "Inhibition of PDGFR beta (unknown origin) at 0.19 uM relative to control"}, "[12]": {"system": "Receptor-type tyrosine-protein kinase FLT3 (Homo sapiens), P36888 [D835Y]", "experiment": "Inhibition of Flt3 D835Y mutant (unknown origin) at 0.19 uM relative to control"}, "[13]": {"biological_target": "Protein-tyrosine kinase 2-beta (Homo sapiens) (UniProt Q14289)", "experiment": "Inhibition of PYK2 (unknown origin) at 0.19 uM relative to control"}, "[14]": {"biological_target": "Casein kinase I isoform gamma-2 (Homo sapiens) (UniProt P78368)", "experiment": "Inhibition of CK1-gamma2 (unknown origin) at 0.19 uM relative to control"}, "[15]": {"biological_target": "Tyrosine-protein kinase FRK (Homo sapiens) (UniProt P42685)", "experiment": "Inhibition of FRK (unknown origin) at 0.19 uM relative to control"}, "[16]": {"biological_target": "CDK4/Cyclin D3 (Homo sapiens) (UniProt P11802+P30281)", "experiment": "Inhibition of CDK4/CyclinD3 (unknown origin) at 0.19 uM relative to control", "assay_type": "protein-complex assay"}, "[17]": {"biological_target": "MAP kinase-interacting serine/threonine-protein kinase 2 (Homo sapiens) (UniProt Q9HBH9)", "experiment": "Inhibition of MNK2 (unknown origin) at 0.19 uM relative to control"}, "[18]": {"experiment": "Lipophilicity, log D of the compound", "assay_type": "physicochemical", "settings": "octanol/water"}, "[19]": {"biological_target": "Mitogen-activated protein kinase 14 (Homo sapiens) (UniProt Q16539)", "experiment": "Inhibition of p38a (unknown origin) at 0.164 uM relative to control"}, "[20]": {"biological_target": "Serine/threonine-protein kinase BRSK2 (Homo sapiens) (UniProt Q8IWQ3)", "experiment": "Inhibition of BRSK2 (unknown origin) at 0.164 uM relative to control"}, "[21]": {"system": "Proto-oncogene tyrosine-protein kinase receptor Ret (Homo sapiens), P07949 [Y791F]", "experiment": "Inhibition of RET Y791F mutant (unknown origin) at 0.164 uM relative to control"}, "[22]": {"biological_target": "Casein kinase I isoform gamma-3 (Homo sapiens) (UniProt Q9Y6M4)", "experiment": "Inhibition of CK1-gamma3 (unknown origin) at 0.164 uM relative to control"}, "[23]": {"biological_target": "Death-associated protein kinase 3 (Homo sapiens) (UniProt O43293)", "experiment": "Inhibition of ZIPK (unknown origin) at 0.164 uM relative to control"}, "[24]": {"biological_target": "Ephrin type-B receptor 3 (Homo sapiens) (UniProt P54753)", "experiment": "Inhibition of EPHB3 (unknown origin) at 0.164 uM relative to control"}, "[25]": {"biological_target": "Dual specificity tyrosine-phosphorylation-regulated kinase 1B (Homo sapiens) (UniProt Q9Y463)", "experiment": "Inhibition of DYRK1B (unknown origin) at 0.164 uM relative to control"}, "[26]": {"biological_target": "cAMP-dependent protein kinase catalytic subunit PRKX (Homo sapiens) (UniProt P51817)", "experiment": "Inhibition of PRKX (unknown origin) at 0.164 uM relative to control"}, "[27]": {"biological_target": "Inhibitor of nuclear factor kappa-B kinase subunit beta (Homo sapiens) (UniProt O14920)", "sequence (O14920 whole entry)": "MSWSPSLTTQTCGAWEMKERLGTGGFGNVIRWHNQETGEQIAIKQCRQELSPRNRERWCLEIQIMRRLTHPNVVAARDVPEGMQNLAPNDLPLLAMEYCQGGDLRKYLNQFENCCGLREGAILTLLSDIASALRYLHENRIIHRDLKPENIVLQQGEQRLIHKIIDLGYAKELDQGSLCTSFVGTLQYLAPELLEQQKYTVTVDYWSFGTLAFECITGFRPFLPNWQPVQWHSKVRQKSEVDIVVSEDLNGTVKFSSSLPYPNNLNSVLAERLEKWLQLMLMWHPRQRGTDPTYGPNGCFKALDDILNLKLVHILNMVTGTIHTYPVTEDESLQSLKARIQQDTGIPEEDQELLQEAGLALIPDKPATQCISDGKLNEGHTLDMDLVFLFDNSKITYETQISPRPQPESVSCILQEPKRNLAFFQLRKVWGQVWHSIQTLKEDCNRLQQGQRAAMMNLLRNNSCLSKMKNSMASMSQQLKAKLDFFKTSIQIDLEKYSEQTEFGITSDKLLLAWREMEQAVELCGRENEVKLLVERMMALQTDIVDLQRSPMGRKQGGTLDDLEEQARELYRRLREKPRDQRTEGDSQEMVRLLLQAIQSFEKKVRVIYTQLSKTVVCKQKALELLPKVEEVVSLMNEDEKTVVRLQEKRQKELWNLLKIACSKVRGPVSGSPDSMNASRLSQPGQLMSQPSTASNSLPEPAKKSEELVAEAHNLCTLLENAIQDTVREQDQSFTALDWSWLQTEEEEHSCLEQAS", "experiment": "Inhibition of IKK-beta (unknown origin) at 0.164 uM relative to control"}, "[28]": {"system": "Receptor-type tyrosine-protein kinase FLT3 (Homo sapiens), P36888 [D835Y]", "experiment": "Inhibition of Flt3 D835Y mutant (unknown origin) at 0.164 uM relative to control"}, "[29]": {"biological_target": "Macrophage-stimulating protein receptor (Homo sapiens) (UniProt Q04912)", "experiment": "Inhibition of MST1R (unknown origin) at 0.164 uM relative to control"}, "[30]": {"biological_target": "Ephrin type-A receptor 8 (Homo sapiens) (UniProt P29322)", "experiment": "Inhibition of EPHA8 (unknown origin) at 0.164 uM relative to control"}, "[31]": {"biological_target": "Dual specificity protein kinase CLK3 (Homo sapiens) (UniProt P49761)", "sequence (P49761 whole entry, looked up)": "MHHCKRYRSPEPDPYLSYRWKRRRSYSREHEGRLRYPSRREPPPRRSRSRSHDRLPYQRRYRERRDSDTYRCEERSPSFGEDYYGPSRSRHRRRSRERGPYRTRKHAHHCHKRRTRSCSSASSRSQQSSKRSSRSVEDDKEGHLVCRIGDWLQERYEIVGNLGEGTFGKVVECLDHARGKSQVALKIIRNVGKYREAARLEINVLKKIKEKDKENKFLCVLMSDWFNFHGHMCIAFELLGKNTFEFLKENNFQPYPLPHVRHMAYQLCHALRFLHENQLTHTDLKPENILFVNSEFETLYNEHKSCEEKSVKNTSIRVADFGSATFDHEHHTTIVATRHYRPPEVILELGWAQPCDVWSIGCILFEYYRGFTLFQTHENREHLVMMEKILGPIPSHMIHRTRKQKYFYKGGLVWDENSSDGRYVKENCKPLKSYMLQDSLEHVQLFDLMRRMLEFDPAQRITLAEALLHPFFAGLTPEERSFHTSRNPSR", "experiment": "Inhibition of CLK3 (unknown origin) at 0.164 uM relative to control"}}}
{"smiles": "Cc1n[nH]c(C)c1-c1ccc2c(NC(=O)c3ccc(N4CCN(C)CC4)cc3)n[nH]c2c1", "values": [{"measurement": "inhibition", "setting": "[1]", "value": -1.7, "unit": "%"}, {"measurement": "inhibition", "setting": "[2]", "value": -2.3, "unit": "%"}]}
{"smiles": "Cc1[nH]nc(C2CC2)c1-c1ccc2c(-c3ccc(N4CCN(C)CC4)nc3)n[nH]c2c1", "values": [{"measurement": "inhibition", "setting": "[3]", "value": 12.3, "unit": "%"}, {"measurement": "inhibition", "setting": "[4]", "value": 4.7, "unit": "%"}, {"measurement": "inhibition", "setting": "[5]", "value": 1.7, "unit": "%"}, {"measurement": "inhibition", "setting": "[6]", "value": 10.3, "unit": "%"}, {"measurement": "inhibition", "setting": "[7]", "value": 2.7, "unit": "%"}, {"measurement": "inhibition", "setting": "[8]", "value": 6.3, "unit": "%"}, {"measurement": "inhibition", "setting": "[9]", "value": 2, "unit": "%"}, {"measurement": "inhibition", "setting": "[10]", "value": -8.7, "unit": "%"}, {"measurement": "inhibition", "setting": "[11]", "value": 97, "unit": "%"}, {"measurement": "inhibition", "setting": "[12]", "value": 93.7, "unit": "%"}, {"measurement": "inhibition", "setting": "[13]", "value": -1.7, "unit": "%"}, {"measurement": "inhibition", "setting": "[14]", "value": 3.3, "unit": "%"}, {"measurement": "inhibition", "setting": "[15]", "value": 3.3, "unit": "%"}, {"measurement": "inhibition", "setting": "[16]", "value": -8, "unit": "%"}, {"measurement": "inhibition", "setting": "[17]", "value": 0, "unit": "%"}]}
{"smiles": "COC(=O)Nc1cc(-c2c(C3CC3)n[nH]c2C)cc2[nH]ncc12", "values": [{"measurement": "logD", "setting": "[18]", "value": 3.1}, {"measurement": "inhibition", "setting": "[19]", "value": 5.7, "unit": "%"}, {"measurement": "inhibition", "setting": "[20]", "value": -6.7, "unit": "%"}, {"measurement": "inhibition", "setting": "[21]", "value": 6, "unit": "%"}, {"measurement": "inhibition", "setting": "[22]", "value": 5.3, "unit": "%"}, {"measurement": "inhibition", "setting": "[23]", "value": -1, "unit": "%"}, {"measurement": "inhibition", "setting": "[24]", "value": 0.7, "unit": "%"}, {"measurement": "inhibition", "setting": "[25]", "value": 0.3, "unit": "%"}, {"measurement": "inhibition", "setting": "[26]", "value": -3.3, "unit": "%"}, {"measurement": "inhibition", "setting": "[27]", "value": -3.7, "unit": "%"}, {"measurement": "inhibition", "setting": "[28]", "value": 7.3, "unit": "%"}, {"measurement": "inhibition", "setting": "[29]", "value": -5, "unit": "%"}, {"measurement": "inhibition", "setting": "[30]", "value": -1.7, "unit": "%"}, {"measurement": "inhibition", "setting": "[31]", "value": 3.7, "unit": "%"}]}
